One data set concerns the target T1, human MMP-9 (Homo sapiens, UniProt P14780).
T1 construct: purchased Yagai, Japan
The experiment in a line: Inhibitory activity of human MMP-9 (commercial kit, degradation of FITC-labeled bovine type IV collagen). Type of data set: biochemical. As to conditions: incubation 4 hours at 42° C. The method, then: Inhibitory Activity of Human MMP-9
The inhibitory activity of test compounds against human MMP-9 were measured by using commercial kits (Yagai, Japan). Gelatinolytic activity was determined by monitoring the degradation of FITC-labeled bovine type IV collagen after incubation for 4 hours at 42° C. The amount of degraded collagen was estimated by measuring the fluorescence intensity at 495 nm (excitation) and 520 nm (emission).
Inhibitory activity of human MMP-9 as mentioned above.
T1 sequence (P14780 94-707): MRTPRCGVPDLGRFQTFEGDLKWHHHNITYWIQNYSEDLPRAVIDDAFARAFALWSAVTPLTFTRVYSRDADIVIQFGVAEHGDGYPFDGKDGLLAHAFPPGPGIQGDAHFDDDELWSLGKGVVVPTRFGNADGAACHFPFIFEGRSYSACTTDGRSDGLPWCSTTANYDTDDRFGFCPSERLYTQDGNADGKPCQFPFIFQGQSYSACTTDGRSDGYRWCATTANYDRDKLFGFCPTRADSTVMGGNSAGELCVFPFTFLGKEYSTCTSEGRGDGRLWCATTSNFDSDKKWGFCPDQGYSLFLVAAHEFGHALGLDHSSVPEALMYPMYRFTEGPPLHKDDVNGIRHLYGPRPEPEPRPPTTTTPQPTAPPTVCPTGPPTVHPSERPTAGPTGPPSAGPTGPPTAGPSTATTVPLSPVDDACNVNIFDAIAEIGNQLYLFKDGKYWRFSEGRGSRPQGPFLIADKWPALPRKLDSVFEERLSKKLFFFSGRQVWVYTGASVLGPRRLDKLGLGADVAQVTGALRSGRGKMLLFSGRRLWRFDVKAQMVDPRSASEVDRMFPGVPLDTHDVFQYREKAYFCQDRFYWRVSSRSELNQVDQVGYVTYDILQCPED
One may read the IC50 as the concentration at which inhibition is half-maximal. A lower IC50 goes with greater potency. On to `O=C(O)C[C@]1(c2ccc(C#Cc3ccc(Cl)cc3)s2)CCCCS1(=O)=O` [Example 179, ((2S)-2-{5-[(4-Chlorophenyl)ethynyl]thiophen-2-yl)-1,1-dioxo-3,4,5,6-tetrahydro-2H-thiopyran-2-yl)acetic acid], for which half-maximal inhibition (IC50) required 7.17 nM. The same measure, in the same setting: in the case of `O=C(O)C[C@]1(c2ccc(-c3ccc(-c4cnco4)cc3)s2)CCCCS1(=O)=O` [Example 3, [(2S)-2-[5-[4-(5-Oxazolyl)phenyl]thiophen-2-yl]-1,1-dioxo-3,4,5,6-tetrahydro-2H-thiopyran-2-yl]acetic acid] it was 16 nM; in that of `O=C(O)C[C@]1(c2ccc(-c3ccc(-c4ccsc4)cc3)s2)CCCCS1(=O)=O` [Example 35, ((2S)-1,1-Dioxo-2-{5-[4-(thiophen-3-yl)phenyl]-thiophen-2-yl}-3,4,5,6-tetrahydro-2H-thiopyran-2-yl)acetic acid], 2.77 nM. Same read-out and setting: the result for `O=C(O)C[C@]1(c2ccc(-c3cc4ccc(F)cc4s3)s2)CCCCS1(=O)=O` [Example 97, {(2S)-1,1-Dioxo-2-[5-(6-fluorobenzothiophen-2-yl)thiophen-2-yl]-3,4,5,6-tetrahydro-2H-thiopyran-2-yl}acetic acid] reads 1.37 nM; that for `COc1ccc2sc(-c3ccc([C@@]4(CC(=O)O)CCCCS4(=O)=O)s3)cc2c1` [Example 51, {(2S)-2-[5-(5-Methoxybenzothiophen-2-yl)thiophen-2-yl]-1,1-dioxo-3,4,5,6-tetrahydro-2H-thiopyran-2-yl} acetic acid], 4.56 nM.

Tested on in another data set: not given
Assay: not given
Conditions: not given
As usually defined, the melting point is the temperature of the solid-liquid transition. The compound `O=C(O)C[C@]1(c2ccc(C#Cc3ccc(Cl)cc3)s2)CCCCS1(=O)=O` [Example 179, ((2S)-2-{5-[(4-Chlorophenyl)ethynyl]thiophen-2-yl)-1,1-dioxo-3,4,5,6-tetrahydro-2H-thiopyran-2-yl)acetic acid] yielded a melting point of 203 to 204 °C. Still for that read-out and setting: in the case of `O=C(O)C[C@]1(c2ccc(-c3cc4cc(F)ccc4s3)s2)CCCCS1(=O)=O` [Example 53, {(2S)-2-[5-(5-Fluorobenzothiophen-2-yl)thiophen-2-yl]-1,1-dioxo-3,4,5,6-tetrahydro-2H-thiopyran-2-yl} acetic acid] it was 219 to 221 °C.

With `COc1ccc2cc(-c3ccc([C@@]4(CC(=O)O)CCCCS4(=O)=O)s3)sc2c1` [Example 52, {(2S)-2-[5-(6-Methoxybenzothiophen-2-yl)thiophen-2-yl]-1,1-dioxo-3,4,5,6-tetrahydro-2H-thiopyran-2-yl} acetic acid], the melting point is 232 to 235 °C. The compound `CCCC#Cc1ccc([C@@]2(CC(=O)O)CCCCS2(=O)=O)s1` [Example 178, ((2S)-1,1-Dioxo-2-(5-[1-pentynyl]thiophen-2-yl}-3,4,5,6-tetrahydro-2H-thiopyran-2-yl)acetic acid] had a melting point of 171 to 172 °C. `CCOc1ccc2cc(-c3ccc([C@@]4(CC(=O)O)CCCCS4(=O)=O)s3)ccc2c1` [Example 48, {(2S)-1,1-Dioxo-2-[5-(6-ethoxynaphthalen-2-yl)thiophen-2-yl]-3,4,5,6-tetrahydro-2H-thiopyran-2-yl} acetic acid] returned a melting point of 219 to 222 °C. `O=C(O)C[C@]1(c2ccc(-c3ccc4cc(-c5cnco5)ccc4c3)s2)CCCCS1(=O)=O` [Example 43, ((2S)-1,1-Dioxo-2-{5-[6-(oxazol-5-yl)naphthalen-2-yl]thiophen-2-yl}-3,4,5,6-tetrahydro-2H-thiopyran-2-yl)acetic acid] came in with a melting point of 260 to 265 °C. The same measure, in the same setting: in the case of `COc1ccc2sc(-c3ccc([C@@]4(CC(=O)O)CCCCS4(=O)=O)s3)cc2c1` [Example 51, {(2S)-2-[5-(5-Methoxybenzothiophen-2-yl)thiophen-2-yl]-1,1-dioxo-3,4,5,6-tetrahydro-2H-thiopyran-2-yl} acetic acid] it was 215 to 218 °C.

Regarding `CC(C)Oc1ccc(-c2ccc([C@@]3(CC(=O)O)CCCCS3(=O)=O)s2)cc1` [Example 96, ((2S)-1,1-Dioxo-2-{5-[4-(1-methylethoxy)phenyl]-thiophen-2-yl}-3,4,5,6-tetrahydro-2H-thiopyran-2-yl) acetic acid], the melting point lay within 184 to 185 °C. The same measure, in the same setting: the result for `CNC(=O)c1ccc2cc(-c3ccc([C@@]4(CC(=O)O)CCCCS4(=O)=O)s3)ccc2c1` [Example 54, [(2S)-1,1-Dioxo-2-(5-{6-[methylcarbamoyl)naphthalen-2-yl}thiophen-2-yl)-3,4,5,6-tetrahydro-2H-thiopyran-2-yl]acetic acid] reads 230 to 232 °C. Still for that read-out and setting: in the case of `Cc1ccc(C#Cc2ccc([C@@]3(CC(=O)O)CCCCS3(=O)=O)s2)cc1` [Example 180, ((2S)-1,1-Dioxo-2-{5-[(4-methylphenyl)ethynyl]-thiophen-2-yl}-3,4,5,6-tetrahydro-2H-thiopyran-2-yl)acetic acid] it was 172 to 173 °C.

`Cc1ccc2sc(-c3ccc([C@@]4(CC(=O)O)CCCCS4(=O)=O)s3)cc2c1` [Example 50, {(2S)-2-[5-(5-Methylbenzothiophen-2-yl)thiophen-2-yl]-1,1-dioxo-3,4,5,6-tetrahydro-2H-thiopyran-2-yl} acetic acid] showed a melting point of 209 to 213 °C.

Source of the values: patent US20040266826A1, “Thiophenylthiopyrane dioxides as mmp or tnf-alpha inhibitors” (priority 2001, published 2004).
